Data reported in patent publication US20250186474A1 (CHINA CHEMICAL & PHARMACEUTICAL CO., LTD., priority 2023, published 2025).

Experiments:
[1] = Stress test of compositions with different EIDD-1931 concentrations (60° C., 7 and 14 days); assay type: physicochemical; settings: API
Protocol: Therefore, the concentration of EIDD-1931 was adjusted, and another stress test was conducted to evaluate how the resulting drugs degrade in 7 and 14 days.

[2] = Solubility / precipitation in the pharmaceutical solution composition; assay type: physicochemical; settings: drug prepared with 20 mg/ml

O=c1nc(NO)ccn1[C@@H]1O[C@H](CO)[C@@H](O)[C@H]1O [EIDD-1931, β-D-N4-hydroxycytidine]
Single-impurity percentage [1]: 0.01/0.01% | total-impurity percentage [1]: 0.01/0.01% | Theoretical value ([1]; impurity test): 93.25% | precipitation [2]: had precipitation issues
